In paper PMC10762078, “Role of UPF1-LIN28A interaction during early differentiation of pluripotent stem cells” (Nature Communications, 2024):
Entries after “also recorded” stand apart in the source; their conditions may differ. Ends that are not written are not given here.

Key:
Type in all cases: cell-based, human
p-UPF1 (Ser1096) = assay: Western blot of p-UPF1 (Ser1096) in CPP-peptide-treated hPSCs; conditions: for p-UPF1 (Ser1096)/Calnexin, mean: relative to CPP-P1 = 100, n = 3
Protocol: (§1) For CPP-conjugated peptide delivery, HeLa, 293T, and PA-1 cells were incubated with CPP-conjugated peptides or CPP-FITC at 2 μM in DMEM with 10% FBS for 12 h a day before cell harvest. hPSCs were treated with CPP-conjugated peptides at 10 μM in mTeSR Plus Medium, and the peptide-containing medium was changed every day over 10 days. The ROCK inhibitor (Tocris Bioscience, Y-27632) treated-hPSCs were dissociated into single cells using Accutase (Merck, SCR005) and differentiated into ectoderm, mesoderm, and endoderm using the STEMdiff Trilineage Differentiation Kit ([…] Technologies, 05230) following the manufacturer’s protocol. Differentiated cells treated with CPP-conjugated peptides were analysed at 0, 3, and 5 days for ectoderm and endoderm, and at 0, 3, and 4 days for mesoderm.
Protein samples were loaded for electrophoresis on sodium dodecyl sulphate (SDS) polyacrylamide gels, followed by Coomassie blue staining or transferred to nitrocellulose membranes (Cytiva) for WB. After blocking with 5% non-fat milk (Cellconic) in Tris-buffered saline with Tween-20 for 30 min at room temperature, the membranes were incubated with the following primary antibodies: anti-FLAG (GenScript, A00187; 1:2000), UPF1 (Cell Signaling Technology, 12040; 1:4000), UPF2 (Cell Signaling Technology, 11875; 1:2000), eIF4E (Cell Signaling Technology, 2067; 1:2000), β-actin (Sigma-Aldrich, A2228; 1:4000), GST (Cytiva, 27-4577-01; 1:2000), MYC (Calbiochem, OP10; 1:2000), Calnexin (Cell Signaling Technology, 2679; 1:4000), LIN28A (Cell Signaling Technology, 3978; 1:2000), pSer1096 phosphorylated UPF1 (1:2000)[58], or p-Thr28 phosphorylated UPF1 (ImmuQuest, IQ653; 1:2000). Primary antibodies were incubated overnight at 4 °C and then washed thrice with TBS-T, followed by incubation with secondary antibodies: Goat anti-Rabbit IgG (Invitrogen, 31460; 1:4000), Goat anti-Mouse IgG (Invitrogen, 31430; 1:4000), or Horse anti-Goat IgG (Vector Laboratories, PI-9500; 1:4000) for 1 h at room temperature. For pull-downed protein detection, all primary and secondary antibodies were diluted at 1:10,000. The blots were imaged using ChemiDoc XRS+ System (Bio-Rad) and the greyscale intensity values were quantified using Image Lab 3.0 software (Bio-Rad).
DAPI FITC Merge DAPI FITC Merge CHA15 H9 Pro2 H9
No peptide CPP-FITC Calnexin
For 2-day treatm ent For 4-day treatm ent […]
Student’s t-test was used. Data are presented as m ean values ± S.D (b) and mean values ± SEM (c and d). All statistical test us ed wer e two-s ided. T he m inim um num ber of independent biological replicate experim ents was a, b, and d n = 3, c n = 5. T he experim ents wer e conducted three tim es, each iteration producing consistent results. […]

CHA15 cells [1] = assay: Immunostaining of SOX1, DLK1 and LHX2 during ectodermal differentiation (Fig. 7b); conditions: for DLK1 fluorescence quantification, mean / LHX2 fluorescence quantification, mean / SOX1 fluorescence quantification, mean: mean of set1-set4
Protocol: as §1
(§2) hPSCs or differentiated cells were fixed in 4% paraformaldehyde (Sigma-Aldrich). After 15–20 min, the cells were washed with 0.1% bovine serum albumin in phosphate-buffered saline (BSA/PBS) thrice and blocked for 1 h by adding 0.3% Triton X-100 (Sigma-Aldrich) and 10% normal goat serum (NGS; Fitzgerald industries, NG22S). After blocking, cells were incubated with the following primary antibodies: anti-UPF1 (Cell Signaling Technology, 12040; 1:500), LIN28A (Cell Signaling Technology, 3978; 1:500), OCT4 (Santa Cruz, sc-5279; 1:500), NANOG (Cell Signaling Technology, 4903; 1:500), DLK1 (GeneTex, GTX60511; 1:500), SOX1 (Cell Signaling Technology, 4194; 1:500), or LHX2 (GeneTex, GTX129241; 1:500). Primary antibodies were incubated overnight at 4 °C followed by incubation with the following secondary antibodies: Cy3 (Jackson ImmunoResearch, 115-165-146; 1:500) or Alexa Fluor 488 (Invitrogen, A-11008; 1:500) followed by the incubation with secondary fluorescence-conjugated antibodies for 1 h. The cells were mounted in […] with DAPI mounting medium (Vector Laboratories, H1200).
(§3) Immunofluorescence staining, proximity ligation assay imaging, and cell-penetrating efficiency of CPP-FITC were imaged with a confocal laser scanning microscope (Leica, TSC SP5) or immunofluorescence microscope (Leica, DM5000B). Z-stacks were captured, with sections spanning the entire cell. The LAS X Life Science program was used to obtain the maximum intensity projections and cross-sections of the confocal images.

CHA15 cells [2] = assay: Immunofluorescence counting of OCT4- and NANOG-positive cells (Fig. 6c); conditions: for NANOG-positive cells, fluorescence quantification, mean / OCT4-positive cells, fluorescence quantification, mean: CHA15, CPP-peptide 10 μM, mean of 4 sets; for NANOG fluorescence, difference between means vs P1 ± SEM / OCT4 fluorescence, difference between means vs P1 ± SEM: CHA15, vs CPP-P1
Protocol: as §1, §2, §3

[3] = ectodermal differentiation, CHA15
[4] = Fig 7b, vs. P1, ± SEM, unpaired t test, df=6

Substance	phosphorylated UPF1 (p-UPF1 (Ser1096); CHA15 and Pro2 cells, 10 μM)	p-UPF1 levels after longer treatment (p-UPF1 (Ser1096); H9, 4-day treatment)	p-UPF1 levels (p-UPF1 (Ser1096); H9 cells, short treatment, 10 μM)	DLK1 and LHX2 expression (CHA15 cells [1]; [3])	SOX1 expression (CHA15 cells [1]; [3])	levels of OCT4 and NANOG (CHA15 cells [2]; CHA15, proliferative state)	p-UPF1 (Ser1096)/Calnexin, mean (p-UPF1 (Ser1096); CHA15, 2-day treatment) [%]	p-UPF1 (Ser1096)/Calnexin, mean (p-UPF1 (Ser1096); H9, 2-day treatment) [%]	p-UPF1 (Ser1096)/Calnexin, mean (p-UPF1 (Ser1096); H9, 4-day treatment) [%]	p-UPF1 (Ser1096)/Calnexin, mean (p-UPF1 (Ser1096); Pro2, 2-day treatment) [%]	DLK1 fluorescence quantification, mean (CHA15 cells [1]; Fig 7b)	LHX2 fluorescence quantification, mean (CHA15 cells [1]; Fig 7b)	SOX1 fluorescence quantification, mean (CHA15 cells [1]; Fig 7b)	DLK1 fluorescence quantification, difference between means ± SEM (CHA15 cells [1]; [4])	LHX2 fluorescence quantification, difference between means ± SEM (CHA15 cells [1]; [4])	SOX1 fluorescence quantification, difference between means ± SEM (CHA15 cells [1]; [4])	NANOG-positive cells, fluorescence quantification, mean (CHA15 cells [2])	OCT4-positive cells, fluorescence quantification, mean (CHA15 cells [2])	NANOG fluorescence, difference between means vs P1 ± SEM (CHA15 cells [2])	OCT4 fluorescence, difference between means vs P1 ± SEM (CHA15 cells [2])
KKKWCRKKKSSADEKRYRALKRTAERELLMNA [CPP-P8, CPP conjugated to P8]	increased phosphorylated UPF1 in CHA15 and Pro2 cells; also recorded: upregulation of p-UPF1 in CHA15 and Pro2 cells	upregulates the levels of p-UPF1	did not elicit a corresponding increase in p-UPF1 levels in H9 cells	increased DLK1 and LHX2 expression	abrogated SOX1 expression	significantly decreased	–	–	–	–	–	–	–	–	–	–	–	–	–	–
KKKWCRKKKSSADEKRYRALKRTAERELLMNA [P8]	–	–	–	–	–	–	203	91	226	244	98	65.64	40.11	67.91 ± 4.905	30.85 ± 5.040	-20.06 ± 8.048	14.24	22.84	-71.49 ± 1.616	-69.57 ± 2.939
N-MPELQKLQQLKDE-C [P2, peptide derived from the UPF1 (419–700) domain]	–	–	–	–	–	–	–	–	–	–	–	–	–	–	–	–	81.51	89.62	-4.223 ± 2.867	-2.780 ± 1.262
N-QKLDQKELQLEPM-C [P1, reference compound]	–	–	–	–	–	–	100	100	100	100	30.09	34.79	60.17	–	–	–	85.74	92.4	–	–
